PMC7249761 (Journal of thoracic oncology : official publication of the …, 2016)

Assays:
[1] = format: in vivo, patients; details: with crizotinib 150 mg twice daily; 3 plus 3 design
[2] = system: cytochrome P450 family 3 subfamily A member 4 [CYP3A4]; details: cited from earlier work

Compound	maximum tolerated dose (MTD) of erlotinib in the combination [1]	CYP3A4 inhibition [2]
C#Cc1cccc(Nc2ncnc3cc(OCCOC)c(OCCOC)cc23)c1 [erlotinib]	100 mg once daily	
C[C@@H](Oc1cc(-c2cnn(C3CCNCC3)c2)cnc1N)c1c(Cl)ccc(F)c1Cl [crizotinib]		moderate cytochrome P450 family 3 subfamily A member 4 [CYP3A4] inhibitor
